Reference: patent publication US6844313B1, “Composition containing a meiosis activating substance” (Novo Nordisk A/S, priority 1999, dated 2005)
≈ marks a conversion by molar mass, not a printed value. Like-named read-outs stand apart in the source and are kept apart here.

Assays:
[1] = Solubility of FF-MAS in water, ethanol and ethanol/water; format: physicochemical
Protocol: The solubility of a preferred MAS, i.e., FF-MAS, in water is very low, i.e., approximately 20 picogram/ml (corresponding to 2×10^−5 μg/ml), and in ethanol the solubility is substantially higher, i.e., approximately 4 mg/ml. According to our preliminary investigations, the highest solubility of FF-MAS in a mixture of ethanol and water (1:2.5) is approximately 0.4 mg/ml.

[2] = Solubility and appearance of FF-MAS in water/ethanol containing HSA before evaporation; format: physicochemical; settings: Example 3; ethanol/water mixture containing HSA
Protocol: Prepare a saturated ethanolic solution of FF-MAS. Blend with an aqueous solution of the additive in the ration 1:2,5. By visual inspection control that surplus FF-MAS is available in the solution. Rotate the solution for 24 hours at room temperature. Filter the solution through 0,22 […] filter, determine the content of FF-MAS by HPLC and calculate the solubility. Transfer 350μl to 4-well dish and evaporate to dryness at room temperature. Add 500μl MEM AL- PHA medium (Gibcobal). If a clear solution is obtained within half an hour, the composition is tested on oocytes obtained from immature female mice. % GVB obtained is at least 50%, preferable 80%, vide example 1.
In this example, 3 products were prepared. Referring to the table below, the stock solution of FF-MAS used for product 1, 2, and 3 contained 50, 500 and 3330 μg/ml, respectively. For each of the products, the stock solution of HSA contained 20% HSA. The amount of said stock solutions used is stated in the table. For example, for product 1, 400 μl of the FF-MAS stock solution was mixed with 1000 μl of the HSA stock solution. After mixing of these stock solutions, the solutions were clear, and no precipitation was observed therein. After mixing, the amount thereof stated in the table was transferred to 4-well multi-dishes (Nuclon, Denmark). […]

CC(C)=CCC[C@@H](C)[C@H]1CC=C2C3=C(CC[C@@]21C)[C@@]1(C)CC[C@H](O)C(C)(C)[C@@H]1CC3 [FF-MAS, 4,4-dimethyl-5 α-cholesta-8,14,24-triene-3β-ol]
solubility ([1]; ethanol, organic solvent or mixture, read-out: solubility in ethanol): ~4000 µg/mL (≈ 9.74 mM)
solubility ([1]; ethanol/water (1:2.5), aqueous with cosolvent or surfactant or cyclodextrin, ethanol and water (1:2.5), no additive, preliminary investigations, read-out: highest solubility in a mixture of ethanol and water (1:2.5)): ~400 µg/mL (≈ 0.974 mM)
solubility in water ([1]; water): approximately 20 picogram/ml
highest concentration of FF-MAS dissolved [2]: 0.95 mg/mL
